According to US6455583B1, “Method for treating meibomian gland disease” (The University of Miami, priority 1998, dated 2002):
Values joined by “and” are separate entries in the source; they are usually repeats but may differ in a detail not shown here. Identical values can stand only once.

Tests used:
pro-MMP9 = pro-MMP9 activity in supernatant of human corneal epithelial cultures (gelatin zymogram); type: cell-based; conditions: doxycycline 5·g/ml for 24 hours, compared to untreated cultures; FIG. 8
Procedure: FIG. 8 is a gelatin zymogram of human corneal epithelial cell supernatant: doxycycline treatment and MMP-3 activation. Lane Legend: (1) 92 kDa purified pro-MMP-9 standard (0.1 ng); (2) Corneal epithelial supernatant+50 μg/mL doxycycline; (3)Supernatant+50 μg/mL doxycycline+1.5 ng/μL MMP-3; (4) Supernatant+100 μg/mL doxycycline+1.5 ng/μL MMP-3; (5) Supernatant from cell culture pre-treated with doxycycline; (6) Supernatant from cell culture pre-treated with doxycycline+1.5 ng/μL MMP-3. Exposure of human corneal epithelial cultures to doxycycline (5·g/ml) for 24 hours decreased the level of pro-MMP9 activity in the supernatant by 70% compared to untreated cultures (FIG. 8). MMP-9 is the metalloproteinase responsible for initiating sterile corneal ulceration and it is also capable of cleaving precursor IL-1β into its mature form.

[1] = system: patients with meibomian gland disease and delayed tear clearance; experiment: Topical 0.025% doxycycline solution in patients with meibomian gland disease and delayed tear clearance (Example 6); type: in vivo, human
Description: Tetracyclines and chemically modified tetracyclines for topical administration can be added to buffered and electrolyte balanced aqueous solutions, buffered and electrolyte balanced aqueous solutions with a lubricating polymer, mineral oil or petrolatum-based ointment, other oils, liposomes, cylcodextrins, sustained release polymers or gels in a range from 0.001 to 3% (weight per volume or weight per weight). These preparations can be administered to the preocular tear film or onto the eyelid skin or lid margin 1 to 6 times per day for a period up to the lifetime of the patient. For example, an eye drop solution comprising doxycycline as an active ingredient was prepared by dissolving pharmaceutical grade doxycycline hydrochloride powder in an electrolyte-balanced salt solution (BSS™, Alcon, Ft. Worth, Tex.) to a final concentration of 0.025%.
The solution was prepared as described herein.

IL-1RA = IL-1RA release by human corneal epithelial cell cultures; type: cell-based; conditions: 24 h, FIG. 7
Procedure: Media=negative control; LPS=cultures treated with lipopolysaccharide for 24 h; Doxy=cultures treated with doxycycline (5 μg/ml) for 24 h; CMT 3=cultures treated with chemically modified tetracycline CMT 3 (1 μg/ml) for 24 hr; Doxy+LPS=cultures treated with LPS and doxycycline (5 μg/ml) for 24 h; CMT 3+LPS=cultures treated with LPS and chemically modified tetracycline CMT 3 (1 μg/ml) for 24 hr.
IL-1RA has an anti-inflammatory effect by competing with the pro-inflammatory forms of IL-1 (IL-1α and IL-1β) for the type 1 receptor. […] Furthermore, the concentration of IL-1RA in corneal epithelial cultures stimulated with LPS and treated with either doxycycline or CMT-3 was greater than cultures exposed to LPS alone (FIG. 7). These findings indicate tetracyclines are anti-inflammatory due to their ability to stimulate IL-1RA release by the human corneal epithelium.

[2] = system: patients with ocular rosacea; experiment: Topical oxytetracycline ointment in patients with meibomian gland disease associated with rosacea and delayed tear clearance (Example 5); type: in vivo, human; parameters: key to Clinical Response (per patient): Excellent response, complete or almost complete relief of symptoms.; Good response, symptoms moderately, but not completed relieved
Procedure: Eleven ( 11) patients with ocular irritation symptoms due to meibomian gland disease associated with rosacea and delayed tear clearance were treated with a commercially available oxytetracycline ointment (Terak, Akorn Pharmaceuticals) as a topical administration to the ocular surface or the eyelids. Seventy-three percent (73%) of these patients had complete resolution of irritation symptoms.

SMILES: C[C@H]1c2cccc(O)c2C(=O)C2=C(O)[C@]3(O)C(=O)C(C(N)=O)=C(O)[C@@H](N(C)C)[C@@H]3[C@@H](O)[C@@H]21 [doxycycline]
- decrease of the level of pro-MMP9 activity in the supernatant (pro-MMP9): 70%
- RESPONSE (per patient) ([1]; 0.025% topical doxycycline solution, one line per patient 1-11, diagnosis MGD, DTC): no effect
- patients with complete resolution of symptoms ([1]; topical solution (doxycycline eye drops), 11 patients): more than 90%

SMILES: NC(=O)C1=C(O)C[C@@H]2C[C@@H]3Cc4cccc(O)c4C(=O)C3=C(O)[C@]2(O)C1=O [CMT-3]
- concentration of IL-1RA in LPS-stimulated cultures compared to LPS alone (IL-1RA; LPS + doxycycline 5 μg/ml or CMT 3 1 μg/ml): greater
- release of IL-1RA into the media compared to untreated cultures (IL-1RA; doxycycline 5 μg/ml or CMT 3 1 μg/ml): significantly increased

SMILES: CN(C)[C@@H]1C(O)=C(C(N)=O)C(=O)[C@@]2(O)C(O)=C3C(=O)c4c(O)cccc4[C@@](C)(O)[C@H]3[C@H](O)[C@@H]12 [oxytetracycline]
- patients with complete resolution of (irritation) symptoms ([2]; topical ointment to ocular surface or eyelids, 11 patients): 73%
- patients who experienced burning from the medication ([2]; topical ointment, 11 patients, one of which ceased treatment): Three
- Clinical Response (per patient) ([2]; topical oxytetracycline ointment, one line per patient 1-11): G (3×) and E (8×)
- Comments (tolerability, per patient) ([2]; topical oxytetracycline ointment, per patient): mild burning
